Data set [1] in a line: in vitro. The settings on record: for stability relative to the original oncocin sequence: bacterial lysate of E. coli BL21 AI; for half-life at 150 μg/mL: pH 7.4. Here is the method: Bacteria (E. coli BL21 AI) were cultured over night at 37° C. in nutrient broth (Carl Roth GmbH & Co. KG, Karlsruhe, Germany). This suspension was centrifuged (5000 rpm, 4° C.) in a AVANTI® J=20-XP centrifuge using a JLA-10500 rotor (Beckman coulter, Fullerton, USA). The pellet was washed with phosphate buffered saline (PBS, 8.7 mmol/L Na2HPO4, 1.2 mmol/L KH2PO4, 150 mmol/L NaCl, pH 7.4) and centrifuged in an ALLEGRA® 21 R centrifuge (Beckman Coulter, 3000 rpm, 4° C., 20 min). The pellet was resuspended in PBS (60 mg/mL) and lysed on ice using ultra sonic (2×2 min with 2 s on/2 s off) applied via micro tip (750 W, 40% amplitude; Fisher Biobiock Scientific, Illkirch, France). One mL aliquots were centrifuged (15400 rpm, 20 min, 4° C.) and the supernatant was stored at −80′C.
The peptide concentration was determined with a Bradford protein assay (Bradford M M. Rapid and Sensitive Method for Quantitation of Microgram Quantities of Protein Utilizing Principle of Protein-Dye Binding. Analytical Biochemistry 72: 248-54, 1976). Briefly, 0.01% (w/v) Coomassie brilliant blue G250 was dissolved in 5% aqueous ethanol containing 8.5% orthophosphoric (Bradford reagent). The mixture was incubated first at 60° C. for 1 h and then at room temperature for 12 h. After filtration 200 μl of the reagent were mixed with 50 μl sample solution in a polystyrole 96-well plate and incubated for 15 min in the dark. The absorption was measured at 595 nm against the negative control (50 μl PBS+200 μL Bradford reagent). The protein concentration was calculated from a calibration curve of bovine serum albumin.
The stability against bacterial proteases was determined in a bacterial lysate of E. coli BL21 AI adjusted with PBS to a protein concentration of 0.5 mg/mL. Peptides were dissolved in the bacterial lysate at a final concentration of 150 μg/mL and incubated at 37° C. Aliquots were taken in triplicates after 0, 30, 60, 120, and 240 min and precipitated by addition of trichloroacetic acid to a final concentration of 3% (v/v). After 10 minutes on ice, the samples were centrifuged, the supernatant neutralized with sodium hydroxide solution (1 mol/L) and stored at −20° C. The samples were analyzed by RP-HPLC (Jupiter C18-column) using a linear aqueous acetonitrile or methanol gradient containing 0.1% (v/v) TFA. Metabolites were identified by MALDI-TOF-MS.

The subject of a further data set is E. coli BL21 AI. The data set is described as follows: MIC, liquid broth microdilution assay. Type of data set: cell-based, Escherichia coli. The note with it: 1% TSB, 37° C., 20±2 h. Here is the method:
(§1) Minimal inhibitory concentrations were determined in triplicates by a liquid broth microdilution assay in sterile 96-well plates (Greiner Bio-One GmbH, Frickenhausen, Germany) using a total volume of 100 μL per well (Amsterdam, D. Susceptibility testing of antimicrobials in liquid media in Antibiotics in laboratory medicine (ed. Lorian, V.) 52-111 (Lippincott Williams & Wilkins, Baltimore, 1996)). Aqueous peptide solutions (1 mg/mL) were serially two-fold diluted in 1% tryptic soy broth (TSB). A typical dilution series ranged from 128 μg/mL to 0.5 μg/mL in eight steps. Overnight cultures of bacteria were diluted with 1% TSB to 1.5×10^7 cells/mL (Klebsiella pneumoniae DSM 681, Escherichia coli BL21AI and DSM 10233) and 4×10^7 cells/mL (Micrococcus luteus ATCC 10240). Fifty μL of these solutions were added to each well gaining a starting cell concentration of 7.5×10^5 cells/well and 2×10^6 cells/well, respectively. The plates were incubated at 37° C. and the absorbance of each well was measured after 20±2 h at 595 nm.
A general note: Dilution methods test growth across graded concentrations, often in twofold steps.

A further data set relates to M. luteus DSM 10240. The class given is cell-based, Micrococcus luteus. The settings on record: DSM 10240, 2 h. Here is the method: as §1, with “The plates were incubated at 37° C. and the absorbance of each well was measured after 20±2 h at 595 nm.” left out
A short description of data set [2]: in vitro. The note with it: mouse.
Protocol: (§2) The serum stabilities of all peptides were determined in pure and 25% (v/v) aqueous pooled mouse serum (PAA Laboratories GmbH, Pasching, Austria) (Hoffmann R, Vasko M, & Otvos L. Serum stability of phosphopeptides. Analytica Chimica Acta 352: 319-25, 1997). Peptides were dissolved in serum at a final concentration of 75 μg/mL and incubated at 37° C. Aliquots taken in triplicates after 0, 30, 60, 120 and 240 min were precipitated by addition of trichloroacetic acid to a final concentration of 3% (v/v). After 10 minutes on ice, the samples were centrifuged, the supernatant neutralized with sodium hydroxide solution (1 mol/L) and stored at −20° C. The samples were analyzed on the analytical Jupiter C18-column using a linear aqueous acetonitrile or methanol gradient containing 0.1% (v/v) TFA. The metabolites were identified by MALDI-TOF-MS.
For a further data set, the system named is E. coli DSM 10233. Type of data set: cell-based, Escherichia coli. The note with it: DSM 10233, 2 h. Here is the method:
as §1, with “The plates were incubated at 37° C. and the absorbance of each well was measured after 20±2 h at 595 nm.” left out

A further data set deals with K pneumoniae DSM 681. The class given is cell-based, Klebsiella pneumoniae. The settings on record: DSM 681, 2 h. Here is the method:
as §1, with “The plates were incubated at 37° C. and the absorbance of each well was measured after 20±2 h at 595 nm.” left out

For data set [3] the following is noted: full mouse serum.
Protocol: as §2
The nature of data set [4]: bacterial lysate of E. coli BL21 AI. The note with it: 37° C., up to 240 min.
Data set [5] in a line: full mouse serum (pooled mouse serum, PAA Laboratories). The settings on record: 37° C., up to 480 min.

In brackets after ≈: the same amount, converted by molar mass. Entries after “also recorded” stand apart in the source; their conditions may differ. Ends that are not written are not given here. Peptide text beside a SMILES is read from it.

For `CC(C)C[C@H](NC(=O)[C@H](Cc1ccc(O)cc1)NC(=O)[C@@H]1CCCN1C(=O)[C@@H]1CCCN1C(=O)[C@H](CCCCN)NC(=O)[C@H](CC(=O)O)NC(=O)[C@@H](N)C(C)C)C(=O)N1CCC[C@H]1C(=O)N[C@@H](CCCNC(=N)N)C(=O)N1CCC[C@H]1C(=O)N[C@@H](CCCNC(=N)N)C(=O)N1CCC[C@H]1C(=O)N1CCC[C@H]1C(=O)N[C@@H](CCCNC(=N)N)C(=O)N[C@@H](CCCN)C(=O)N[C@H](C(=O)N[C@@H](Cc1ccc(O)cc1)C(=O)N[C@@H](CC(N)=O)C(=O)N[C@@H](CCCN)C(N)=O)[C@@H](C)O` [SEQ ID NO. 2, VDKPPYLPRPRPPROTYNO-NH2] (HELM PEPTIDE1{V.D.K.P.P.Y.L.P.R.P.R.P.P.R.[Orn].T.Y.N.[Orn].[am]}$$$$V2.0; N-terminus assumed), the “stability relative to the original oncocin sequence” value in the data set “in vitro [1]” was “at least three times more stable”. In “in vitro [1]” (cells or culture medium), the half-life at 150 μg/mL is 2.83 h. The “minimal inhibitory concentration (MIC) E. coli BL21 AI” value in the data set with E. coli BL21 AI came to 4 µg/mL (≈ 1.74 µM). Moreover, in the data set on M. luteus DSM 10240, the “minimal inhibitory concentration (MIC) M. luteus DSM 10240” value is 8 µg/mL (≈ 3.49 µM). In the data set “in vitro [2]” (full (pure) pooled mouse serum), the half-life at 75 μg/mL was 2 h.

On to `CC(C)C[C@H](NC(=O)[C@H](Cc1ccc(O)cc1)NC(=O)[C@@H]1CCCN1C(=O)[C@@H]1CCCN1C(=O)[C@H](CCCCN)NC(=O)[C@H](CC(=O)O)NC(=O)[C@@H](N)C(C)C)C(=O)N1CCC[C@H]1C(=O)N[C@@H](CCCNC(=N)N)C(=O)N1CCC[C@H]1C(=O)N[C@@H](CCCNC(=N)N)C(=O)N1CCC[C@H]1C(=O)N1C[C@H](O)C[C@H]1C(=O)N[C@@H](CCCNC(=N)N)C(=O)N1C[C@H](O)C[C@H]1C(=O)N[C@H](C(=O)N[C@@H](Cc1ccc(O)cc1)C(=O)N[C@@H](CC(N)=O)C(=O)N[C@@H](CCCN)C(N)=O)[C@@H](C)O` [SEQ ID NO. 3, VDKPPYLPRPRP-4tHyp-R-4tHyp-TYNO-NH2] (HELM PEPTIDE1{V.D.K.P.P.Y.L.P.R.P.R.P.[Hyp].R.[Hyp].T.Y.N.[Orn].[am]}$$$$V2.0; N-terminus assumed), for which the “stability relative to the original oncocin sequence” value in the data set “in vitro [1]” is given as “at least three times more stable”. The half-life at 150 μg/mL in the data set “in vitro [1]” (cells or culture medium) turned out to be 4 h. Besides, the “minimal inhibitory concentration (MIC) E. coli BL21 AI” value is 2 to 4 µg/mL with E. coli BL21 AI and 4 µg/mL (≈ 1.73 µM) in the data set on E. coli BL21 AI (listed as 3). Moreover, the “minimal inhibitory concentration (MIC) E. coli DSM 10233” value with E. coli DSM 10233 fell in the range of 2 to 4 µg/mL. Further, in the data set on K pneumoniae DSM 681, the “minimal inhibitory concentration (MIC) K pneumoniae DSM 681” value worked out at 8 µg/mL (≈ 3.47 µM). Besides, the “minimal inhibitory concentration (MIC) M. luteus DSM 10240” value with M. luteus DSM 10240 was determined as 32 µg/mL (≈ 13.9 µM). Further, the “starting derivative not degraded after 480 min” value in data set [3] is on record as “(60%)”. Besides, the half-life at 75 μg/mL in the data set “in vitro [2]” (full (pure) pooled mouse serum) is > 8 h.

As for `CC[C@H](C)[C@H](NC(=O)[C@H](CCCN)NC(=O)[C@H](CCCNC(=N)N)NC(=O)[C@@H]1CCCN1C(=O)[C@@H]1CCCN1C(=O)[C@H](CCCNC(=N)N)NC(=O)[C@@H]1CCCN1C(=O)[C@H](CCCNC(=N)N)NC(=O)[C@@H]1CCCN1C(=O)[C@H](CC(C)C)NC(=O)[C@H](Cc1ccc(O)cc1)NC(=O)[C@@H]1CCCN1C(=O)[C@@H]1CCCN1C(=O)[C@H](CCCCN)NC(=O)[C@H](CC(=O)O)NC(=O)[C@@H](N)C(C)C)C(=O)N[C@@H](Cc1ccc(O)cc1)C(=O)N[C@@H](CC(N)=O)C(=O)N[C@@H](CCCN)C(N)=O` [SEQ ID NO. 4, VDKPPYLPRPRPPROIYNO-NH2, reference compound] (HELM PEPTIDE1{V.D.K.P.P.Y.L.P.R.P.R.P.P.R.[Orn].I.Y.N.[Orn].[am]}$$$$V2.0; N-terminus assumed), the “minimal inhibitory concentration (MIC) E. coli BL21 AI” value with E. coli BL21 AI worked out at 8 µg/mL (≈ 3.47 µM). In addition, in the data set with M. luteus DSM 10240, the “minimal inhibitory concentration (MIC) M. luteus DSM 10240” value is 8 µg/mL (≈ 3.47 µM). Moreover, the half-life at 75 μg/mL in “in vitro [2]” (full (pure) pooled mouse serum) came to 2.92 h. The share remaining at 8 h, 75 μg/mL in “in vitro [2]” (full (pure, undiluted) pooled mouse serum) came out at 60%.

With VDKPPYLPRPRPPRRIYNR-NH2, the cleaved bond entry in [4] is given as “Pro10-Arg11; also recorded: Pro13-Arg14; also recorded: Arg15-Ile16”; in data set [5] it was “Arg15-Ile16, major; also recorded: Asn18-Arg19, major”.

“VDKPPYLPRPRPPRRIYNR-NH2 [SEQ ID NO. 1, VDKPPYLPRPRPPRRIYNR-NH2, reference compound]”: the half-life at 150 μg/mL in the data set “in vitro [1]” (Escherichia coli) worked out at 1 h. Also, the “minimal inhibitory concentration (MIC) E. coli BL21 AI” value in the data set with E. coli BL21 AI worked out at 4 µg/mL. In addition, the “minimal inhibitory concentration (MIC) E. coli DSM 10233” value with E. coli DSM 10233 came to 16 µg/mL. Also, the “minimal inhibitory concentration (MIC) K pneumoniae DSM 681” value with K pneumoniae DSM 681 is 4 µg/mL. Besides, in the data set with M. luteus DSM 10240, the “minimal inhibitory concentration (MIC) M. luteus DSM 10240” value came out at 8 µg/mL. In the data set “in vitro [2]” (pure (full) pooled mouse serum), this compound yielded a half-life at 75 μg/mL of 0.5 h.

In general, half-life refers to the time needed for the level to fall by half in the phase considered. Low values mean fast loss, high ones slow loss. In general, share remaining refers to the share of the starting amount still present when the sample was taken. Low values mean more turnover, high ones less turnover.

For the origin of these results see patent US8937155B2 (priority 2010, dated 2015).
